In ChEMBL document CHEMBL1201862, “PubChem BioAssay data set” (2004):
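Where inhibition never reached the appropriate level, the endpoint shown equals the highest concentration tested. Otherwise, values were interpolated linearly from a five-concentration, 48-hour dose response in 96-well plates. At the GI50, growth is halved.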 The source made the active and inactive calls. Cut-off read from the data, not from the text of the source: active = GI50 up to about 1.1 µM and inactive = higher.

Columns and labels:
Test in all cases: NCI tumour cell line growth inhibition, 48 h
786-0 = system: 786-0
A498 = system: A498
A549 = system: A549
ACHN = system: ACHN
CAKI-1 = system: CAKI-1
CCRF-CEM = system: CCRF-CEM
DLD-1 = system: DLD-1
DMS-114 = system: DMS-114
DMS-273 = system: DMS-273
EKVX = system: EKVX
HCC 2998 = system: HCC 2998
HCT-116 = system: HCT-116
HCT-15 = system: HCT-15
HL-60 = system: HL-60
HOP-62 = system: HOP-62
HT-29 = system: HT-29
IGROV-1 = system: IGROV-1
K562 = system: K562
KM-20L2 = system: KM-20L2
KM12 = system: KM12
LOX IMVI = system: LOX IMVI
LXFL 529 = system: LXFL 529
M14 = system: M14
M19-MEL = system: M19-MEL
MOLT-4 = system: MOLT-4
Malme-3M = system: Malme-3M
NCI-H226 = system: NCI-H226
NCI-H23 = system: NCI-H23
NCI-H460 = system: NCI-H460
NCI-H522 = system: NCI-H522
OVCAR-3 = system: OVCAR-3
OVCAR-4 = system: OVCAR-4
OVCAR-5 = system: OVCAR-5
OVCAR-8 = system: OVCAR-8
RPMI-8226 = system: RPMI-8226
RXF 393 = system: RXF 393
RXF 631 = system: RXF 631
SF-268 = system: SF-268
SF-295 = system: SF-295
SF-539 = system: SF-539
SK-MEL-28 = system: SK-MEL-28
SK-MEL-2 = system: SK-MEL-2
SK-MEL-5 = system: SK-MEL-5
SN12C = system: SN12C
SNB-19 = system: SNB-19
SNB-75 = system: SNB-75
SW-620 = system: SW-620
U-251 = system: U-251
UACC-257 = system: UACC-257
UACC-62 = system: UACC-62
UO-31 = system: UO-31

SMILES: CC(=O)Oc1ccccc1 [ACETIC ACID PHENYL ESTER]
- GI50 (786-0): > 100 µM (inactive)
- GI50 (A498): > 100 µM (inactive)
- GI50 (A549): > 100 µM (inactive)
- GI50 (ACHN): > 100 µM (inactive)
- GI50 (CAKI-1): > 100 µM (inactive)
- GI50 (CCRF-CEM): > 100 µM (inactive)
- GI50 (DLD-1): > 100 µM (inactive)
- GI50 (DMS-114): > 100 µM (inactive)
- GI50 (DMS-273): > 100 µM (inactive)
- GI50 (EKVX): > 100 µM (inactive)
- GI50 (HCC 2998): > 10 µM (inactive)
- GI50 (HCT-116): > 100 µM (inactive)
- GI50 (HCT-15): > 100 µM
- GI50 (HL-60): > 100 µM (inactive)
- GI50 (HOP-62): > 100 µM (inactive)
- GI50 (HT-29): > 100 µM (inactive)
- GI50 (IGROV-1): > 100 µM (inactive)
- GI50 (K562): > 100 µM (inactive)
- GI50 (KM-20L2): > 100 µM (inactive)
- GI50 (KM12): > 100 µM (inactive)
- GI50 (LOX IMVI): > 100 µM (inactive)
- GI50 (LXFL 529): > 100 µM (inactive)
- GI50 (M14): > 100 µM (inactive)
- GI50 (M19-MEL): > 100 µM (inactive)
- GI50 (MOLT-4): > 100 µM (inactive)
- GI50 (Malme-3M): > 100 µM (inactive)
- GI50 (NCI-H226): > 100 µM (inactive)
- GI50 (NCI-H23): > 100 µM (inactive)
- GI50 (NCI-H460): > 100 µM (inactive)
- GI50 (NCI-H522): > 100 µM (inactive)
- GI50 (OVCAR-3): > 100 µM (inactive)
- GI50 (OVCAR-4): > 100 µM (inactive)
- GI50 (OVCAR-5): > 100 µM (inactive)
- GI50 (OVCAR-8): > 100 µM (inactive)
- GI50 (RPMI-8226): > 100 µM (inactive)
- GI50 (RXF 393): > 100 µM (inactive)
- GI50 (RXF 631): > 100 µM (inactive)
- GI50 (SF-268): > 100 µM (inactive)
- GI50 (SF-295): > 100 µM (inactive)
- GI50 (SF-539): > 100 µM (inactive)
- GI50 (SK-MEL-28): > 100 µM (inactive)
- GI50 (SK-MEL-2): > 100 µM (inactive)
- GI50 (SK-MEL-5): > 100 µM (inactive)
- GI50 (SN12C): > 100 µM (inactive)
- GI50 (SNB-19): > 100 µM (inactive)
- GI50 (SNB-75): > 100 µM (inactive)
- GI50 (SW-620): > 100 µM (inactive)
- GI50 (U-251): > 100 µM (inactive)
- GI50 (UACC-257): > 100 µM (inactive)
- GI50 (UACC-62): > 100 µM (inactive)
- GI50 (UO-31): > 100 µM (inactive)
